What was measured:
[1] = tested on: DNA damage-induced senescent cells (SEN) and oncogene-induced senescent cells (SEN (OIS)) of human diploid fibroblasts (IMR90, BJ); assay: SASP factor and senescence marker gene expression (qRT-PCR) in senescent cell models; format: cell-based; details: for expression of CDKN2A or CDKN1A: senescent cells; for expression of SASP genes (IL1A, IL1B): senescent cells (SEN), cholesterol depletion, cholesterol stimulation or lovastatin treatment
Description: (§1) DNA damage-induced senescence was induced in human diploid fibroblasts (IMR90, BJ) by treatment with ionizing radiation (12 Gy) or bleomycin (10 μg/ml, for 24 hours). Specifically, IMR90 and BJ cells expressing hTERT (DNA damage-induced senescence; SEN), IMR90 cells co-expressing hTERT and H-RasV12 [oncogene-induced senescence; SEN (OIS)], and replication-exhausted [replicative senescent cells; SEN (REP)] IMR90 cells were prepared. Normal proliferating cells (PRO) were used as the control.
To investigate the functional consequences of age-related changes in cholesterol levels, cellular cholesterol was depleted using methyl-β-cyclodextrin (MβCD), and multiple senescence markers were examined during DNA damage-induced aging, including senescence-associated β-galactosidase (SA-β-Gal) activity, cell cycle arrest, and expression of senescence-associated secretory phenotype (SASP) factors.
To specifically confirm the effect of increased expression of lysosomal ABCA1 on SASP activity, experiments were conducted using probucol, an ABCA1 modulator that has been reported to limit its localization to intracellular compartments including lysosomes, and glyburide, a broad-spectrum inhibitor of the ABC transport protein family that promotes channel closure of ABC transporters. The prepared senescent cell models were treated with probucol (10 μM) and/or glyburide (75 μM), and immunoblotting analysis was performed on lysosome immunoprecipitates (LysoIP).

[2] = target: T1, lysosomal ABCA1 (Homo sapiens, UniProt O95477); assay: immunoblotting of lysosome immunoprecipitates (LysoIP) in senescent cells; format: cell-based; details: senescent cells (SEN); probucol 10 μM, glyburide 75 μM
T1 construct: endogenous ABCA1 was abundantly present in lysosomes; endogenous in cells; host or cells: senescent human diploid fibroblasts (IMR90, BJ; hTERT-expressing, DNA damage-induced senescence)
T1 sequence (O95477 whole entry): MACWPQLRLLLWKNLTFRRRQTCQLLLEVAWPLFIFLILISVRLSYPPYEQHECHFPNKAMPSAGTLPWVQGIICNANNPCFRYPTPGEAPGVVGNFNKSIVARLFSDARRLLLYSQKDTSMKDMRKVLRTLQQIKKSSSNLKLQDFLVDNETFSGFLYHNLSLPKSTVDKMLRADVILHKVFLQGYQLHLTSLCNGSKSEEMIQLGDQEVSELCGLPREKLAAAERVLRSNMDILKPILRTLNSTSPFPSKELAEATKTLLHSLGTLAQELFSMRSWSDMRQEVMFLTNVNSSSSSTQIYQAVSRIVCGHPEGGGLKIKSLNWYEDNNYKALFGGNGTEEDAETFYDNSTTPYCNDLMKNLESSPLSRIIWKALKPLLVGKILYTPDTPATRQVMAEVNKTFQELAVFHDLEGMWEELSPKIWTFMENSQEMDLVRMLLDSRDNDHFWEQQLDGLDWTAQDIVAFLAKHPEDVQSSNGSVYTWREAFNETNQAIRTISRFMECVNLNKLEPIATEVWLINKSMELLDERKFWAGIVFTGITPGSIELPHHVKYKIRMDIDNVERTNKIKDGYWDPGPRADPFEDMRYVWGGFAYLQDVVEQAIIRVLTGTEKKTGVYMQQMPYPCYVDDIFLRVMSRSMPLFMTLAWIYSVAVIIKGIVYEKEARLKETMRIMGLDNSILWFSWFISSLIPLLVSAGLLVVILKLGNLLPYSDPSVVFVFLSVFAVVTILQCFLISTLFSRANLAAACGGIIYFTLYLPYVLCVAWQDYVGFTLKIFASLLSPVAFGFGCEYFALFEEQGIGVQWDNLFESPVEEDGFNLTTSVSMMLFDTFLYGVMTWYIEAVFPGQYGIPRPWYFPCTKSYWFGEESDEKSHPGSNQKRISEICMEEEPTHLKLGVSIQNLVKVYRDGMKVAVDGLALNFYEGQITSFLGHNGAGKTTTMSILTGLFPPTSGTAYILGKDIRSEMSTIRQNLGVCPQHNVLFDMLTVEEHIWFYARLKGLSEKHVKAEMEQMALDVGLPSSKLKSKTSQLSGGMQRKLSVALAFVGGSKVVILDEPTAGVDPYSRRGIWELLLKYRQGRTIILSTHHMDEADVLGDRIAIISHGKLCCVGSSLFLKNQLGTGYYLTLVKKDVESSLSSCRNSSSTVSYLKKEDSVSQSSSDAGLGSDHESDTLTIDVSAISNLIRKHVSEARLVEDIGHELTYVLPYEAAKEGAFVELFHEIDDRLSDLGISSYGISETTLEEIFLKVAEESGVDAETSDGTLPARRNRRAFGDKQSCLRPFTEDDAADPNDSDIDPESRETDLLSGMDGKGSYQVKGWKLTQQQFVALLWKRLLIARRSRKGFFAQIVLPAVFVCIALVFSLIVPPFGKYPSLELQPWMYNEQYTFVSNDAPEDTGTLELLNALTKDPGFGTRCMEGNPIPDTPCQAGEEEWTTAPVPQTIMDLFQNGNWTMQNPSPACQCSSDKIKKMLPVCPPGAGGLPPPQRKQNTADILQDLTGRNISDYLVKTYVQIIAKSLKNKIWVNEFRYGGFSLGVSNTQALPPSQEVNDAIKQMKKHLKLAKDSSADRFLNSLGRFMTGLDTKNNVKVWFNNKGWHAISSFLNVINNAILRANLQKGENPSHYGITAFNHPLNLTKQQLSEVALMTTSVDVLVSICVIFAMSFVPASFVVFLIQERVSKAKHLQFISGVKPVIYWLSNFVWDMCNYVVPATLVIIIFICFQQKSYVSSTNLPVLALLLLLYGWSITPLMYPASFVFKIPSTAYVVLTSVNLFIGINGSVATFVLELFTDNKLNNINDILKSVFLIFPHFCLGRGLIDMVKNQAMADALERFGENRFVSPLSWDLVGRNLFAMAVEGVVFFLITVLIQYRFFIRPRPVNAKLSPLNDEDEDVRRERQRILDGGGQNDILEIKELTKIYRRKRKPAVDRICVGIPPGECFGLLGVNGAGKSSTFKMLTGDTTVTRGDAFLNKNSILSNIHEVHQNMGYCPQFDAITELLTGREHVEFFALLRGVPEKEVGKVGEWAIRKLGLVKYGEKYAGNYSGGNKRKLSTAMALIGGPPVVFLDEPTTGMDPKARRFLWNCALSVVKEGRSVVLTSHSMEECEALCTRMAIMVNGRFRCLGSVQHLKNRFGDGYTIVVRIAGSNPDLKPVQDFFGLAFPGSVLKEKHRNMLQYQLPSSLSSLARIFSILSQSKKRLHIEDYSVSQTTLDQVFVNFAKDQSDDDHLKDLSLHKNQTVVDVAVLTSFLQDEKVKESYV
Description: as §1, with “control. It was analyzed how ABCA1, which mediates cholesterol transport at the plasma membrane, is involved in cholesterol accumulation. […] The prepared senescent cell models were treated with probucol (10 μM) and/or glyburide (75 μM), and immunoblotting analysis was performed on lysosome immunoprecipitates (LysoIP).” for “control.”

[3] = tested on: mouse primary cultured chondrocytes (SEN); assay: SASP regulation in senescent mouse primary cultured chondrocytes (SEN); format: cell-based; details: probucol 10 μM, glyburide 75 μM, lovastatin 2 μM
Description: Mouse primary cultured chondrocytes were isolated from the femoral condyle and tibial plateau of 5-day-old ICR mice.
The ABCA1-deficient mouse primary chondrocyte model was prepared using siRNAs of SEQ ID NOs: 5 to 8. • ABCA1 siRNA #1: SEQ ID NO. 5 • ABCA1 siRNA #2: SEQ ID NO. 6 • ABCA1 siRNA #3: SEQ ID NO. 7 • ABCA1 siRNA #4: SEQ ID NO. 8
Senescence of chondrocytes promotes age-related musculoskeletal disorders. The correlation between cholesterol metabolism and ABCA1 was analyzed in a DNA damage-induced aging model (SEN) of mouse primary cultured chondrocytes isolated from the femoral condyles and tibial plateaus of 5-day-old ICR mice.
When ABCA1 was depleted in mouse primary cultured chondrocytes (SEN), the expression of SASP genes, including Mmp3, Mmp13 and Cxcl1, was suppressed, while the expression of Cdkn2a remained unchanged (FIG. 11B). […] Induction of cholesterol depletion inhibited the sustained activation pattern of mTORC1 (FIG. 11D), which was consistent with the results from the senescent cell model (in vitro) in Example 1. Therefore, it was confirmed that the lysosomal ABCA1 gene is a major factor in SASP regulation in vivo.

[4] = tested on: male mice subjected to DMM surgery (post-traumatic osteoarthritis); assay: post-traumatic osteoarthritis progression after DMM surgery, intra-articular injection; format: in vivo, mouse; details: for osteoarthritis progression / cartilage destruction in knee joints (Safranin O staining) / expression levels of SASP factors (IL6, MMP13) and senescence markers (p16, nuclear HMGB1) / osteoarthritis-related pain symptoms / pain indicators: intra-articular; for osteoarthritis progression / cartilage destruction in knee joints (Safranin O staining): probucol 200 μM 10 μl weekly for 6 weeks, hydrogel with 3 mM glyburide 10 μl every 10 days for 10 weeks; for expression levels of SASP factors (IL6, MMP13) and senescence markers (p16, nuclear HMGB1) / osteoarthritis-related pain symptoms / pain indicators: probucol 200 μM weekly for 6 weeks, 3 mM glyburide hydrogel every 10 days for 10 weeks
Description: In the case of mice, male (C57BL/6J) mice were used since estrogen in female mice may influence osteoarthritis progression and serve as a confounding factor. Post-traumatic osteoarthritis was induced in 12-week-old male mice by destabilization of the medial meniscus (DMM) surgery. To investigate the role of lysosomal cholesterol partitioning regulated by ABCA1 in age-related inflammation in vivo, ABCA1 modulators were administered to male mice subjected to DMM surgery, and their effects on the progression of post-traumatic osteoarthritis were observed. Male mice subjected to either DMM surgery or sham surgery were intra-articularly injected with 10 μl of probucol (200 μM) dissolved in DMSO once a week for 6 weeks, or with 10 μl of PBS-suspended hydrogel containing 3 mM glyburide (PBS:hydrogel=1:1) every 10 days for 10 weeks. After the treatment period, the mice were sacrificed.

[5] = tested on: senescence-induced cells (IMR90, BJ); assay: cholesterol measurement (Filipin staining, enzymatic measurement) in senescent cells; format: cell-based, human
Description: as §1, with “control. […] The prepared senescent cell models were treated with probucol (10 μM) and/or glyburide (75 μM), and immunoblotting analysis was performed on lysosome immunoprecipitates (LysoIP).” for “control.”

[6] = tested on: mTORC1; assay: mTORC1 activity in senescent cells; format: cell-based, human
Description: as §1, with “control. […] The prepared senescent cell models were treated with probucol (10 μM) and/or glyburide (75 μM), and immunoblotting analysis was performed on lysosome immunoprecipitates (LysoIP).” for “control.”

[7] = SEN and SEN (OIS), glyburide 75 μM
[8] = DNA damage-induced senescent cells (SEN) lacking ABCA1, probucol 10 μM
[9] = intra-articular probucol 200 μM weekly for 6 weeks

CC(C)CCC[C@@H](C)[C@H]1CC[C@H]2[C@@H]3CC=C4C[C@@H](O)CC[C@]4(C)[C@H]3CC[C@]12C [cholesterol]
expression of CDKN2A or CDKN1A [1]: little effect | expression of SASP genes (IL1A, IL1B) [1]: significantly increased

COc1ccc(Cl)cc1C(=O)NCCc1ccc(S(=O)(=O)NC(=O)NC2CCCCC2)cc1 [glyburide]
expression of lysosomal ABCA1 (LysoIP immunoblot) [2]: decrease | SASP activity [1, 7]: inhibited | SASP activation / SASP factor expression induced by probucol ([1]; senescence-induced cells treated with probucol plus test substance): completely suppressed | SASP factors (Mmp3, Mmp13, Cxcl1) [3]: suppressed | osteoarthritis progression / cartilage destruction in knee joints (Safranin O staining) [4]: alleviated | expression levels of SASP factors (IL6, MMP13) and senescence markers (p16, nuclear HMGB1) [4]: decreased | osteoarthritis-related pain symptoms / pain indicators [4]: amelioration | lysosomal cholesterol accumulation [5, 7]: inhibited

CC[C@H](C)C(=O)O[C@H]1C[C@@H](C)C=C2C=C[C@H](C)[C@H](CC[C@@H]3C[C@@H](O)CC(=O)O3)[C@H]21 [lovastatin]
expression of CDKN2A or CDKN1A [1]: without affecting | expression of SASP genes (IL1A, IL1B) [1]: suppressed | expression of the cholesterol transporter gene ABCA1 ([1]; senescent cells vs normal proliferating cells (PRO)): also suppressed | SASP factors (Mmp3, Mmp13, Cxcl1) [3]: suppressed

CC(C)(Sc1cc(C(C)(C)C)c(O)c(C(C)(C)C)c1)Sc1cc(C(C)(C)C)c(O)c(C(C)(C)C)c1 [probucol]
expression of lysosomal ABCA1 (LysoIP immunoblot) [2]: further enhanced | SASP (IL1A, IL1B) activation [1, 8]: not activated | SASP activity ([1]; oncogene-induced senescent cells (SEN (OIS)), probucol 10 μM): increased | SASP activity ([1]; senescence-induced cells (SEN), probucol treatment): increased | expression of CDKN2A or CDKN1A [1]: minimal effect | SASP factors (Mmp3, Mmp13, Cxcl1) [3]: upregulated | Osteoarthritis Research Society International (OARSI) grades [4, 9]: higher | dynamic and static weight-bearing capacity [4, 9]: impaired | hindlimb withdrawal threshold [4, 9]: reduced | osteoarthritis progression / cartilage destruction in knee joints (Safranin O staining) [4]: worsened | expression levels of SASP factors (IL6, MMP13) and senescence markers (p16, nuclear HMGB1) [4]: increased | osteoarthritis-related pain symptoms / pain indicators [4]: worsened | cholesterol accumulation (lysosomal) ([5]; DNA damage-induced senescent cells (SEN), probucol 10 μM): promoted | mTORC1 activation [6, 8]: not activated | mTORC1 activity ([6]; senescence-induced cells, probucol treatment): activation

methyl-β-cyclodextrin [MBCD]
expression of SASP genes (IL1A, IL1B) [1]: reduced | cholesterol levels ([5]; senescence-induced cells, cholesterol-depleted (MBCD+) conditions): decreased
